Assay type in all cases: in vivo, human
Test [1] deals with subjects being treated for anxiety. Kind of test: Experimental trial, 9-day dosing protocol, subjects treated for anxiety. How it is done:
(§1) An experimental trial was conducted on 11 subjects who followed a 9-day dosing protocol for CBD oil. The subjects sought treatment for anxiety, pain, or sleep. On a daily basis, the subjects rated the intensity of their symptoms on a 0-10 numeric scale, with 0 being best and 10 being worst intensity. This scale was constructed similar to the standard ‘Numeric Pain Rating Scale’ often used in clinical practice for pain assessment.
(§2) The trial further enrolled five additional subjects. […] Days 1-3 were a maximum of 5 mg CBD; days 4-6 were a maximum of 10 mg CBD; days 7-9 were a maximum of 20 mg CBD.

Test [2] relates to subjects being treated for pain. Kind of test: Experimental trial, 9-day dosing protocol, subjects treated for pain. As for the experimental part:
as §1, §2

For test [3], the system named is subjects being treated for either anxiety, sleep, or pain. As to the kind of experiment: Experimental trial, all 16 subjects combined (anxiety, sleep or pain), mean daily scores. As for the experimental part:
as §1, §2

The subject of a further test is user with pain. Kind of test: Example 1: 9 day dose titration protocol by automated text messages, user treating pain. Also on record: key to pain score: higher = worse pain; 8 = severe, 6 = moderate. How it is done: In this example This is an example of an automated text message exchange with a user for a 9 day (consecutive) dose titration protocol is sufficient to achieve a minimum effective dose. In this example, Twilio was the automated text messaging service that was used. The cannabinoid medication kit is three 15 ml bottles of CBD tincture (i.e. CBD mixed into an ethyl alcohol base): bottle #1, bottle #2, and bottle #3. Bottle #1 contains CBD at a concentration of 100 mg in 5 ml volume (20 mg/ml). Bottle #2 contains CBD at a higher concentration (2×) of 200 mg in 5 ml volume (40 mg/ml). Bottle #3 contains CBD at a further higher concentration (3×) of 300 mg in 5 ml volume (60 mg/ml). Because the three bottles have different dose amounts, to facilitate identifying the correct bottle and avoid mistakes, bottle #1 has a blue-colored label, bottle #2 has a yellow-colored label, and bottle #3 has an orange-colored label. The user inputs the product code or batch number. This ensures that the relevant dosing protocol is associated with the correct cannabinoid product.
On day #1, the user reports a pain score of 8, indicating severe pain. Accordingly, the user is instructed to take the first dose of 6.25 mg from the (blue bottle) twice daily, and continue this dose regimen for the next three days. To facilitate correct adherence to the instructions, the user is shown an image of the blue bottle and the correct liquid level marking on the graduated dropper. On day #2, the user reports a pain score of 6, indicating a reduction in pain symptoms to a moderate level.
On day #4, the user reports a pain score of 5, indicating a reduction in pain symptoms. […] The user is shown an image of the yellow bottle and the correct liquid level marking on the graduated dropper. On day #5, the user reports a pain score of 7, indicating a flare-up of the pain symptoms. The user is asked whether there were any external factors that might have caused this flare-up. […] Thus, the user is asked whether to pause the protocol to allow the user to reassess whether this treatment will be beneficial. Here, the user desires to continue CBD treatment.
Accordingly, the user is given reassurance and instructed to continue at the same dose (i.e. 12.5 mg twice daily).
It is now time for the user to increase the dose amount to stabilize the pain at that level. Accordingly, the user is instructed to switch to the orange bottle (60 mg/ml) and take 18.75 mg twice daily. The user is shown an image of the orange bottle and the correct liquid level marking on the graduated dropper. […] Accordingly, the user is instructed to continue the same dosing regimen (i.e. 18.75 mg twice daily). […] Accordingly, the user has reached the personalized minimum effective dose and is instructed to continue the same dosing regimen (i.e. 18.75 mg twice daily) from hereon. At the end of the protocol, the user also receives a summary report that indicates the minimum effective dose, the lowest pain score achieved, the starting and ending benchmarks, and a graph plotting the daily symptom scores.

Regarding `C=C(C)[C@@H]1CCC(C)=C[C@H]1c1c(O)cc(CCCCC)cc1O` [CBD, cannabidiol], the minimum optimal dose in test [1] (Subject #C1_8, anxiety) is reported as 20 mg of CBD/day; in test [1] (Subject #C1_10, anxiety), 10 mg of CBD/day; in test [2] (Subject #C1_4, pain), 10 mg of CBD/day. The “anxiety score after completion of the protocol” value in test [1] (Subject #C1_8, started with score of 5, 0-10 scale) was determined as 1; in test [1] (Subject #C1_10, started with score of 7, 0-10 scale) it was 2. Besides, the “pain score after completion of the protocol” value in test [2] (Subject #C1_4, started with score of 3, 0-10 scale) is recorded as 0. The “mean scores, initial versus end score” value in test [3] (days 1-3 max 5 mg, days 4-6 max 10 mg, days 7-9 max 20 mg CBD, FIG. 7) is listed as “mean scores improved”. In addition, in test [3] (days 1-9, FIG. 8), the “mean daily scores, trend line” value is on record as “downward trending line”. The pain score in the test on user with pain (day #2, CBD tincture 6.25 mg twice daily, day #1 score 8) is 6; with user with pain (day #3, CBD tincture 6.25 mg twice daily), 6; in the test on user with pain (day #4, after 6.25 mg twice daily for three days) it was 5; in the test with user with pain (day #5, 12.5 mg twice daily, flare-up), 7; in the test with user with pain (day #6, 12.5 mg twice daily), 5; with user with pain (day #7, after 12.5 mg twice daily), 4. Besides, the pain score in the test with user with pain (day #8, 18.75 mg twice daily) was determined as 4; in the test with user with pain (day #9, 18.75 mg twice daily), 4. In the test with user with pain (reached on day #9, pain), the “personalized minimum effective dose” value is 18.75 mg twice daily.

Values taken from US20220249397A1, “Automated Dosing Protocol for Use of Cannabinoids or Other Psychoactive Substances” (Function Better Inc., priority 2021, published 2022).
